# Test system: K12877-001-R-J1-PDC complex spheroid viability
# Assay: Anticancer human tumor K12877-001-R-J1-PDC patient-derived lung adenocarcinoma cell line growth inhibition [RAS]
# Settings: for IC50: curve of first compound; for viability, T/C: stronger effect = lower value
# Excerpt: RAS pathway inhibitors in Combinations in Complex Spheroids
# A high-throughput screen of multi-cell type tumor spheroids was designed to identify active combinations of RAS pathway inhibitors and targeted small molecules. Complex spheroids include a stromal component modeled by human endothelial cells (HUVEC) and fibroblasts modeled by human mesenchymal stem cells (MSCs). The concentration ranges selected for each drug and investigational agent were based upon clinically achievable concentrations if the clinical Cmax of the agent was known.
# Compounds. The drugs and investigational agents: abemaciclib (NSC768073), cobimetinib (NSC768068), divarasib (GDC6063, NSC841802), docetaxel (NSC628503), GDC-1971 (RLY-1971, NSC841576), gemcitabine (NSC613327), inavolisib (NSC800729), ipatasertib (NSC767898), KB-0742 (NSC834161), MRTX-1133 (NSC836407), osimertinib (NSC779217), RMC-4630 (NSC839698), RMC-6236 (NSC851965), RMC-6291 (NSC852671), Ro-3306 (NSC812927), sapanisertib (NSC764658), SN-38 (NSC673596), staurosporine (NSC755774), SY5609 (NSC837396), and tovorafenib (DAY101, NSC766906), were obtained from the National Cancer Institute (NCI) Developmental Therapeutics Program Chemical Repository. The FDA-approved anticancer drug set is available from the NCI Developmental Therapeutics Program. […] The stock solutions were prepared in dimethyl sulfoxide (DMSO, Sigma-Aldrich, St. Louis, MO, cat. D2650) at 800-fold the tested concentration and stored at -70 degrees C prior to their use. All drugs and investigational agents were tested over a range starting from a high concentration at or near the clinical Cmax and decreasing in half-log increments. If the clinical Cmax for an agent had not been determined, the highest concentration tested was 10 microM.
# Cell Culture. All cells were maintained in an incubator at 37 degrees C and 5% CO2 with 95% humidity. The PDC lines were cultured according to standard operating procedures established by the NCI PDMR. All PDCs were thawed and cultured in Matrigel-coated flasks prepared with a working solution of 1X Ham's F-12 nutrient mix, without supplementation (Invitrogen, Waltham, MA, cat. 11765054), 100 U/mL penicillin-streptomycin (Invitrogen, cat. 15140122), and 2.5% Matrigel (Corning Inc., Corning, NY, cat. 354248) for the first three passages. The 362531-283-R-J2-PDC and 782815-120-R-J1-PDC lines were cultured in 6C/Colon 1B media, which includes advanced DMEM/F-12 (Thermo Fisher Scientific, cat. 12634028), 10 mM HEPES (Thermo Fisher Scientific, cat. 15630080), 1X GlutaMAX supplement (Thermo Fisher Scientific, cat. 35050061), 0.1 mg/mL primocin (InvivoGen, San Diego, CA, cat. ant-pm-2), 10% defined fetal bovine serum, heat inactivated (HyClone Laboratories Inc., Logan, UT, cat. SH30070.03HI), 50% L-WRN conditioned media (ATCC, cat. CRL-3276), 1.25 mM N-Acetyl-L-cysteine (Sigma-Aldrich, cat. A9165), 10 mM nicotinamide (Sigma-Aldrich, cat. N0636), 1X B-27 supplement (Thermo Fisher Scientific, cat. 17504044), 1X N-2 supplement (Thermo Fisher Scientific, cat. 17502048), 50 ng/mL human EGF (Thermo Fisher Scientific, cat. PHG0311), and 10 microM Y-27632 dihydrochloride (Tocris Bioscience, cat. 1254). The K12877-001-R-J1-PDC line was cultured in 6I media, which includes all 6C/Colon 1B media plus 10 ng/mL human FGF-10 (PeproTech, cat. 100-26), 1 ng/mL human FGF-2 (PeproTech, cat. 100-18B), 1 µM prostaglandin E2 (Tocris Bioscience, cat. 2296), […] hydrocortisone (Sigma-Aldrich, cat. H4001), and […] bovine insulin (Sigma-Aldrich, cat. I6634). The K86415-001-R-J1-PDC line was cultured in 6D media, which includes all 6C/Colon 1B media components minus the L-WRN conditioned media. The 485176-168-R4-J1-PDC was cultured in PANC media, which includes all 6C/Colon 1B media plus 100 ng/mL human FGF-10 (PeproTech, cat. 100-26), 500 nM SB-431542 (Selleckchem, cat. S1067), and 10 nM gastrin (Tocris Bioscience, cat. 3006). […]
# 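Also: spheroids exposed to agents for one week before readout.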
compound,measurement,setting,value
C=CC(=O)Nc1cc(Nc2nccc(-c3cn(C)c4ccccc34)n2)c(OC)cc1N(C)CCN(C)C + C#Cc1c(F)ccc2cc(O)cc(-c3ncc4c(N5CC6CCC(C5)N6)nc(OCC56CCCN5CC(F)C6)nc4c3F)c12,IC50,second compound 0.0316 µM,> 1000 nM
same,IC50,second compound 0.1 µM,> 1000 nM
same,IC50,second compound 0.316 µM,> 1000 nM
same,IC50,second compound 1 µM,> 1000 nM
same,IC50,second compound 3.16 µM,> 1000 nM
same,IC50,second compound 10 µM,> 1000 nM
same,"viability, T/C","second compound 0.0316 µM, first compound 0.00316 µM",95.4%
same,"viability, T/C","second compound 0.0316 µM, first compound 0.01 µM",107%
same,"viability, T/C","second compound 0.0316 µM, first compound 0.0316 µM",108%
same,"viability, T/C","second compound 0.0316 µM, first compound 0.1 µM",106%
same,"viability, T/C","second compound 0.0316 µM, first compound 0.316 µM",113%
same,"viability, T/C","second compound 0.0316 µM, first compound 1 µM",94.3%
same,"viability, T/C","second compound 0.1 µM, first compound 0.00316 µM",108%
same,"viability, T/C","second compound 0.1 µM, first compound 0.01 µM",102%
same,"viability, T/C","second compound 0.1 µM, first compound 0.0316 µM",102%
same,"viability, T/C","second compound 0.1 µM, first compound 0.1 µM",102%
same,"viability, T/C","second compound 0.1 µM, first compound 0.316 µM",119%
same,"viability, T/C","second compound 0.1 µM, first compound 1 µM",97.7%
same,"viability, T/C","second compound 0.316 µM, first compound 0.00316 µM",103%
same,"viability, T/C","second compound 0.316 µM, first compound 0.01 µM",108%
same,"viability, T/C","second compound 0.316 µM, first compound 0.0316 µM",106%
same,"viability, T/C","second compound 0.316 µM, first compound 0.1 µM",106%
same,"viability, T/C","second compound 0.316 µM, first compound 0.316 µM",108%
same,"viability, T/C","second compound 0.316 µM, first compound 1 µM",102%
same,"viability, T/C","second compound 1 µM, first compound 0.00316 µM",105%
same,"viability, T/C","second compound 1 µM, first compound 0.01 µM",99.4%
same,"viability, T/C","second compound 1 µM, first compound 0.0316 µM",101%
same,"viability, T/C","second compound 1 µM, first compound 0.1 µM",115%
same,"viability, T/C","second compound 1 µM, first compound 0.316 µM",101%
same,"viability, T/C","second compound 1 µM, first compound 1 µM",95.3%
same,"viability, T/C","second compound 3.16 µM, first compound 0.00316 µM",107%
same,"viability, T/C","second compound 3.16 µM, first compound 0.01 µM",100%
same,"viability, T/C","second compound 3.16 µM, first compound 0.0316 µM",106%
same,"viability, T/C","second compound 3.16 µM, first compound 0.1 µM",102%
same,"viability, T/C","second compound 3.16 µM, first compound 0.316 µM",87.5%
same,"viability, T/C","second compound 3.16 µM, first compound 1 µM",95%
same,"viability, T/C","second compound 10 µM, first compound 0.00316 µM",106%
same,"viability, T/C","second compound 10 µM, first compound 0.01 µM",95.1%
same,"viability, T/C","second compound 10 µM, first compound 0.0316 µM",89.1%
same,"viability, T/C","second compound 10 µM, first compound 0.1 µM",94%
same,"viability, T/C","second compound 10 µM, first compound 0.316 µM",81.4%
same,"viability, T/C","second compound 10 µM, first compound 1 µM",79.2%
